For the first experiment, the system named is infected PBMCs (VSV-G pseudotyped HIV virus VSV-G/pNLG1-P2A-ΔEnv). In words: cells. The conditions noted are these: Homo sapiens, PBMC, read-out: TACK EC50. Format: cell-based, human.
On to `Cc1nc(C)c(Cn2cnc(C(C)F)c(Oc3c(C)cc(C#N)cc3Cl)c2=O)c(=O)[nH]1` (single isomer, unassigned) [Example 18, (S) or (R)-3-chloro-4-((1-((2,4-dimethyl-6-oxo-1,6-dihydropyrimidin-5-y1)methyl)-4-(1-fluoroethyl)-6-oxo-1,6-dihydropyrimidin-5-yl)oxy)-5-methylbenzonitrile], for which the concentration giving a half-maximal response (EC50) (as a rule, the concentration giving half of the maximal effect) amounted to 129 nM. Regarding `Cc1nc(C)c(Cn2cnc(C(C)F)c(Oc3cc(C(F)F)cc(C#N)c3C)c2=O)c(=O)[nH]1` (single isomer, unassigned) [Example 28], the 50% effective concentration (EC50) was found to be 208 nM. Same read-out and setting: for `Cc1nc(C)c(Cn2cnc(C(C)F)c(Oc3cc(Cl)cc(C#N)c3F)c2=O)c(=O)[nH]1` (single isomer, unassigned) [Example 30] the value was 206 nM. For the molecule `Cc1nc(C)c(Cn2cnc(C(C)F)c(Oc3cc(C(F)F)cc(C#N)c3F)c2=O)c(=O)[nH]1` (single isomer, unassigned) [Example 32, (S) or (R)-5-(difluoromethyl)-3-((1-((2,4-dimethyl-6-oxo-1,6-dihydropyrimidin-5-yl)methyl)-4-(1-fluoroethyl)-6-oxo-1,6-dihydropyrimidin-5-yl)oxy)-2-fluorobenzonitrile], the EC50 is 171 nM. As to `Cc1nc(C)c(Cn2cnc(C(C)F)c(Oc3cc(Cl)cc(C#N)c3Cl)c2=O)c(=O)[nH]1` (single isomer, unassigned) [Example 34, (S) or (R)-2,5-dichloro-3-((1-((2,4-dimethyl-6-oxo-1,6-dihydropyrimidin-5-yl)methyl)-4-(1-fluoroethyl)-6-oxo-1,6-dihydropyrimidin-5-yl)oxy)benzonitrile], the EC50 was found to be 474 nM. The same measure, in the same setting: for `Cc1nc(C)c(Cn2cnc(C(C)F)c(Oc3c(C)cc(C#N)cc3C)c2=O)c(=O)[nH]1` (single isomer, unassigned) [Example 43, (S) or (R)-4-((1-((2,4-dimethyl-6-oxo-1,6-dihydropyrimidin-5-yl)methyl)-4-(1-fluoroethyl)-6-oxo-1,6-dihydropyrimidin-5-yl)oxy)-3,5-dimethylbenzonitrile] the value was 438 nM; for `Cc1nc(C(C)O)[nH]c(=O)c1Cn1cnc(C(F)(F)C(F)F)c(Oc2cc(Cl)cc(C#N)c2F)c1=O` (single isomer, unassigned) [Example 44], 333 nM. As to `Cc1nc(C(C)O)[nH]c(=O)c1Cn1cnc(C(F)(F)C(F)F)c(Oc2cc(C(F)F)cc(C#N)c2C)c1=O` (single isomer, unassigned) [Example 53, 5-(difluoromethyl)-3-((1-((2-(1-hydroxyethyl)-4-methyl-6-oxo-1,6-dihydropyrimidin-5-yl)methyl)-6-oxo-4-(1,1,2,2-tetrafluoroethyl)-1,6-dihydropyrimidin-5-yl)oxy)-2-methylbenzonitrile], the EC50 stood at 392 nM. Still for that read-out and setting: for `COc1c(C#N)cc(C(F)F)cc1Oc1c(C(F)(F)C(F)F)ncn(Cc2cnc(C)[nH]c2=O)c1=O` [Example 1, 5-(difluoromethyl)-2-methoxy-3-((1-((2-methyl-6-oxo-1,6-dihydropyrimidin-5-yl)methyl)-6-oxo-4-(1,1,2,2-tetrafluoroethyl)-1,6-dihydropyrimidin-5-yl)oxy)benzonitrile] the value was 431 nM; for `Cc1ncc(Cn2cnc(C(F)(F)C(F)F)c(Oc3cc(C#N)cc(C(F)F)c3)c2=O)c(=O)[nH]1` [Example 2, 3-(difluoromethyl)-5-((1-((2-methyl-6-oxo-1,6-dihydropyrimidin-5-yl)methyl)-6-oxo-4-(1,1,2,2-tetrafluoroethyl)-1,6-dihydropyrimidin-5-yl)oxy)benzonitrile], 411 nM. Still for that read-out and setting: in the case of `Cc1nc(C)c(Cn2cnc(C(C)(F)F)c(Oc3cc(Cl)cc(C#N)c3Cl)c2=O)c(=O)[nH]1` [Example 3, 2,5-dichloro-3-((4-(1,1-difluoroethyl)-1-((2,4-dimethyl-6-oxo-1,6-dihydropyrimidin-5-yl)methyl)-6-oxo-1,6-dihydropyrimidin-5-yl)oxy)benzonitrile] it was 417 nM; in that of `Cc1nc(C)c(Cn2cnc(C(C)(F)F)c(Oc3cc(Cl)cc(C#N)c3C)c2=O)c(=O)[nH]1` [Example 4, 5-chloro-3-((4-(1,1-difluoroethyl)-1-((2,4-dimethyl-6-oxo-1,6-dihydropyrimidin-5-yl)methyl)-6-oxo-1,6-dihydropyrimidin-5-yl)oxy)-2-methylbenzonitrile], 412 nM. The same measure, in the same setting: in the case of `Cc1nc(C)c(Cn2cnc(C(F)(F)CF)c(Oc3cc(C(F)F)cc(C#N)c3C)c2=O)c(=O)[nH]1` [Example 5, 5-(difluoromethyl)-3-((1-((2,6-dimethyl-4-oxo-4,5-dihydropyrimidin-5-yl)methyl)-6-oxo-4-(1,1,2-trifluoroethyl)-1,6-dihydropyrimidin-5-yl)oxy)-2-methylbenzonitrile] it was 187 nM; in that of `Cc1nc(C)c(Cn2cnc(C(C)(F)F)c(Oc3cc(C(F)F)cc(C#N)c3C)c2=O)c(=O)[nH]1` [Example 6, 3-((4-(1,1-difluoroethyl)-1-((2,4-dimethyl-6-oxo-1,6-dihydropyrimidin-5-y1)methyl)-6-oxo-1,6-dihydropyrimidin-5-yl)oxy)-5-(difluoromethyl)-2-methylbenzonitrile], 201 nM; in that of `Cc1nc(C)c(Cn2cnc(C(F)(F)C(F)F)c(Oc3cc(Br)cc(C#N)c3)c2=O)c(=O)[nH]1` [Example 7, 3-bromo-5-((1-((2,4-dimethyl-6-oxo-1,6-dihydropyrimidin-5-y1)methyl)-6-oxo-4-(1,1,2,2-tetrafluoroethyl)-1,6-dihydropyrimidin-5-yl)oxy)benzonitrile], 353 nM. Take `Cc1nc(C)c(Cn2cnc(C(F)(F)F)c(Oc3cc(C(F)F)cc(C#N)c3C)c2=O)c(=O)[nH]1` [Example 8, 5-(difluoromethyl)-3-((1-((2,4-dimethyl-6-oxo-1,6-dihydropyrimidin-5-y1)methyl)-6-oxo-4-(trifluoromethyl)-1,6-dihydropyrimidin-5-y1)oxy)-2-methylbenzonitrile]: the EC50 worked out at 252 nM.

Take `COc1c(C#N)cc(C(F)F)cc1Oc1c(C(C)(F)F)ncn(Cc2c(C)nc(C)[nH]c2=O)c1=O` [Example 9, 3-((4-(1,1-difluoroethyl)-1-((2,4-dimethyl-6-oxo-1,6-dihydropyrimidin-5-y1)methyl)-6-oxo-1,6-dihydropyrimidin-5-yl)oxy)-5-(difluoromethyl)-2-methoxybenzonitrile]: the EC50 turned out to be 287 nM. Still for that read-out and setting: in the case of `COc1c(C#N)cc(C(F)F)cc1Oc1c(C(F)(F)C(F)F)ncn(Cc2c(C)nc(C)[nH]c2=O)c1=O` [Example 10, 5-(difluoromethyl)-3-((1-((2,4-dimethyl-6-oxo-1,6-dihydropyrimidin-5-y1)methyl)-6-oxo-4-(1,1,2,2-tetrafluoroethyl)-1,6-dihydropyrimidin-5-y1)oxy)-2-methoxybenzonitrile] it was 146 nM; in that of `Cc1nc(C)c(Cn2cnc(C(C)(F)F)c(Oc3c(C)cc(C#N)cc3C)c2=O)c(=O)[nH]1` [Example 11, 4-((4-(1,1-difluoroethyl)-1-((2,4-dimethyl-6-oxo-1,6-dihydropyrimidin-5-yl)methyl)-6-oxo-1,6-dihydropyrimidin-5-yl)oxy)-3,5-dimethylbenzonitrile], 267 nM; in that of `Cc1nc(C)c(Cn2cnc(C(C)(F)F)c(Oc3c(C)cc(C#N)cc3Cl)c2=O)c(=O)[nH]1` [Example 12, 3-chloro-4-((4-(1,1-difluoroethyl)-1-((2,4-dimethyl-6-oxo-1,6-dihydropyrimidin-5-y1)methyl)-6-oxo-1,6-dihydropyrimidin-5-yl)oxy)-5-methylbenzonitrile], 200 nM. As for `Cc1nc(C)c(Cn2cnc(C(C)(F)F)c(Oc3c(Cl)cc(C#N)cc3Cl)c2=O)c(=O)[nH]1` [Example 13, 3,5-dichloro-4-((4-(1,1-difluoroethyl)-1-((2,4-dimethyl-6-oxo-1,6-dihydropyrimidin-5-yl)methyl)-6-oxo-1,6-dihydropyrimidin-5-yl)oxy) benzonitrile], the EC50 is 395 nM. On the same count and under the same terms, for `Cc1nc(C)c(Cn2cnc(C(C)(F)F)c(Oc3cc(C(F)F)cc(C#N)c3F)c2=O)c(=O)[nH]1` [Example 15, 3-((4-(1,1-difluoroethyl)-1-((2,4-dimethyl-6-oxo-1,6-dihydropyrimidin-5-yl)methyl)-6-oxo-. 1,6-dihydropyrimidin-5-yl)oxy)-5-(difluoromethyl)-2-fluorobenzonitrile] the value was 245 nM.

Staying with this experiment, now noted: read-out: TACK EC50.
For the molecule “3-((4-(1, 1-difluoroethyl)-1-((2,4- dimethyl-6-oxo-1,6-dihydropyrimidin- 5-y1)methyl)-6-oxo-1,6- dihydropyrimidin-5-yl)oxy)-2,4,5- trifluorobenzonitrile [Example 14]”, the EC50 came out at 343 nM. Regarding `Cc1nc(C)c(Cn2cnc(C(C)F)c(Oc3cc(C(F)F)cc(C#N)c3C)c2=O)c(=O)[nH]1` (single isomer, unassigned) [Example 29], the half-maximal effective concentration (EC50) stood at 312 nM. Same read-out and setting: in the case of `Cc1nc(C)c(Cn2cnc(C(C)F)c(Oc3cc(Cl)cc(C#N)c3F)c2=O)c(=O)[nH]1` (single isomer, unassigned) [Example 31] it was 397 nM; in that of `Cc1nc(C)c(Cn2cnc(C(C)F)c(Oc3cc(C(F)F)cc(C#N)c3F)c2=O)c(=O)[nH]1` (single isomer, unassigned) [Example 33, (R) or (S)-5-(difluoromethyl)-3-((1-((2,4-dimethyl-6-oxo-1,6-dihydropyrimidin-5-yl)methyl)-4-(1-fluoroethyl)-6-oxo-1,6-dihydropyrimidin-5-yl)oxy)-2-fluorobenzonitrile], 208 nM.

`COc1c(C#N)cc(C(F)F)cc1Oc1c(C(C)F)ncn(Cc2c(C)nc(C)[nH]c2=O)c1=O` (single isomer, unassigned) [Example 35]: the EC50 was determined as 351 nM. The same measure, in the same setting: in the case of `COc1c(C#N)cc(C(F)F)cc1Oc1c(C(C)F)ncn(Cc2c(C)nc(C)[nH]c2=O)c1=O` (single isomer, unassigned) [Example 36] it was 72.3 nM; in that of `Cc1nc(C(C)O)[nH]c(=O)c1Cn1cnc(C(F)(F)C(F)F)c(Oc2cc(C(F)F)cc(C#N)c2C)c1=O` (single isomer, unassigned) [Example 54, 5-(difluoromethyl)-3-((1-((2-(1-hydroxyethyl)-4-methyl-6-oxo-1,6-dihydropyrimidin-5-yl)methyl)-6-oxo-4-(1,1,2,2-tetrafluoroethyl)-1,6-dihydropyrimidin-5-yl)oxy)-2-methylbenzonitrile], 213 nM.

Values taken from US12258329B2 (Merck Sharp & Dohme LLC, priority 2018, dated 2025).
